Reference: ChEMBL document CHEMBL5500360, “Discovery of N-(4-((6-(3,5- Dimethoxyphenyl)-9H-purine derivatives as irreversible covalent FGFR inhibitors” (Eur J Med Chem, 2024)
Active and inactive are the calls of the source. No cut-off for these calls is given here.

Tests used:
MDA-MB-231 [1] = test: Induction of apoptosis in human MDA-MB-231 cells assessed as apoptotic cells at 5 uM incubated for 24 hrs by Annexin V-FITC/PI staining based flow cytometric analysis relative to control; type: functional
MDA-MB-231 [2] = test: Antitumor activity against human MDA-MB-231 cells xenografted in female BALB/c athymic nude mouse assessed as tumor growth inhibition at 20 mg/kg, po administered once a day via gavage for 21 days relative to control; type: functional; conditions: MDA-MB-231, 504 h, time 21 day, read-out: TGI
MDA-MB-231 [3] = test: Induction of apoptosis in human MDA-MB-231 cells assessed as early apoptotic cells at 2.5 uM incubated for 24 hrs by Annexin V-FITC/PI staining based flow cytometric analysis (reference value: 0.131 %); type: functional
[4] = Metabolic stability in rat liver microsomes assessed as parent compound remaining at 1 uM measured after 45 mins by LC-MS/MS analysis; type: ADME, Microsome; conditions: read-out: Stability
MDA-MB-231 [5] = test: Induction of apoptosis in human MDA-MB-231 cells assessed as late apoptotic cells at 5 uM incubated for 24 hrs by Annexin V-FITC/PI staining based flow cytometric analysis (reference value: 0.161 %); type: functional
[6] = Metabolic stability in human liver microsomes assessed as parent compound remaining at 1 uM measured after 15 mins by LC-MS/MS analysis; type: ADME, Microsome; conditions: read-out: Stability
[7] = Metabolic stability in human liver microsomes assessed as parent compound remaining at 1 uM measured after 5 mins by LC-MS/MS analysis; type: ADME, Microsome; conditions: read-out: Stability
[8] = target: Fibroblast growth factor receptor 3 (Homo sapiens, UniProt P22607); test: Inhibition of FGFR3 (unknown origin) by ELISA
Chain of Fibroblast growth factor receptor 3 (P22607 whole entry): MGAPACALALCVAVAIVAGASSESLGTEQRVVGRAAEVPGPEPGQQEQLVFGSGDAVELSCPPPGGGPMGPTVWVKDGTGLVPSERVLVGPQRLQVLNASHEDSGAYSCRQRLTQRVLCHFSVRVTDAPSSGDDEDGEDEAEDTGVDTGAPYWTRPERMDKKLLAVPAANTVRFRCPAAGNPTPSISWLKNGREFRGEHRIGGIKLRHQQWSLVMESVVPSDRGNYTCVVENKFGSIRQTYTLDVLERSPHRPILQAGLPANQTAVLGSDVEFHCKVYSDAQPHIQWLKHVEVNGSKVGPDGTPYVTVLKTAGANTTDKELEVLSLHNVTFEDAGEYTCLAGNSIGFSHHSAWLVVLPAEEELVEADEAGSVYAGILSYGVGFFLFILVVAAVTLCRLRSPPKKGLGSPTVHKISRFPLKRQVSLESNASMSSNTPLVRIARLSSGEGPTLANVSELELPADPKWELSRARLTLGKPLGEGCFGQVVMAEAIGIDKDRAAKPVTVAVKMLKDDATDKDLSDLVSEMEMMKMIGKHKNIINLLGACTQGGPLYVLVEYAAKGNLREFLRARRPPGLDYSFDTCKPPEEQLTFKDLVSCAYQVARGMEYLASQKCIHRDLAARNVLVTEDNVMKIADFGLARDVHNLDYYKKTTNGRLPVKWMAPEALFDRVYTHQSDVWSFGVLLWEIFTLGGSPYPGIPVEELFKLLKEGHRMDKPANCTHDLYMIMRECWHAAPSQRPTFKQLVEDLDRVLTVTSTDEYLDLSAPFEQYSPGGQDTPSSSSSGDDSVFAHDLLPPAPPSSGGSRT

[9] = Metabolic stability in human liver microsomes assessed as parent compound remaining at 1 uM measured after 30 mins by LC-MS/MS analysis; type: ADME, Microsome; conditions: read-out: Stability
MDA-MB-231 [10] = test: Induction of apoptosis in human MDA-MB-231 cells assessed as necrotic cells at 2.5 uM incubated for 24 hrs by Annexin V-FITC/PI staining based flow cytometric analysis (reference value: 0.063 %); type: functional
[11] = Metabolic stability in mouse liver microsomes assessed as parent compound remaining at 1 uM measured after 15 mins by LC-MS/MS analysis; type: ADME, Microsome; conditions: read-out: Stability
[12] = Metabolic stability in rat liver microsomes assessed as parent compound remaining at 1 uM measured after 15 mins by LC-MS/MS analysis; type: ADME, Microsome; conditions: read-out: Stability
MDA-MB-231 [13] = test: Induction of apoptosis in human MDA-MB-231 cells assessed as necrotic cells at 5 uM incubated for 24 hrs by Annexin V-FITC/PI staining based flow cytometric analysis (reference value: 0.063 %); type: functional
in vitro = conditions: human, HUVEC cells
Description: Cytotoxicity against HUVEC cells assessed as inhibition of cell growth incubated for 72 hrs by MTT assay

MDA-MB-231 [14] = test: Effect on PLCgamma protein expression in human MDA-MB-231 cells at 5 to 10 uM incubated for 24 hrs by Western blot analysis; type: functional, cell-based; conditions: dose 5-10 µM
[15] = Metabolic stability in mouse liver microsomes assessed as parent compound remaining at 1 uM measured after 5 mins by LC-MS/MS analysis; type: ADME, Microsome; conditions: read-out: Stability
Cell membrane = test: Induction of mitochondrial membrane potential loss in human MDA-MB-231 cells assessed as increase in JC-1 monomer by measuring green fluorescence incubated for 12 hrs by confocal microscopic analysis; type: cell membranes; conditions: dose 2.5-10 µM
MDA-MB-231 [16] = test: Induction of apoptosis in human MDA-MB-231 cells assessed as necrotic cells at 10 uM incubated for 24 hrs by Annexin V-FITC/PI staining based flow cytometric analysis (reference value: 0.063 %); type: functional
MDA-MB-231 [17] = test: Cell cycle arrest in human MDA-MB-231 cells assessed as accumulation of G2-M phase cells at 5 uM incubated for 24 hrs by […]PI staining based flow cytometric analysis (reference value: 16.88%); type: functional
[18] = Toxicity in BALB/c athymic nude mouse xenografted with human MDA-MB-231 cells assessed as effect on spleen at 10 to 30 mg/kg, po administered once a day via gavage for 21 days by H and E staining based analysis; type: organism-based; conditions: in vivo, 504 h, dose 10-30 mg/kg, time 21 day
MDA-MB-231 [19] = test: Induction of apoptosis in human MDA-MB-231 cells assessed as viable cells at 2.5 uM incubated for 24 hrs by Annexin V-FITC/PI staining based flow cytometric analysis (reference value: 99.645%); type: functional; conditions: read-out: Activity
[20] = Metabolic stability in mouse liver microsomes assessed as half-life at 1 uM incubated for 45 mins by LC-MS/MS analysis; type: ADME, Microsome
[21] = Metabolic stability in mouse liver microsomes assessed as parent compound remaining at 1 uM measured after 45 mins by LC-MS/MS analysis; type: ADME, Microsome; conditions: read-out: Stability
MDA-MB-231 [22] = test: Induction of apoptosis in human MDA-MB-231 cells assessed as viable cells at 10 uM incubated for 24 hrs by Annexin V-FITC/PI staining based flow cytometric analysis (reference value: 99.645%); type: functional; conditions: read-out: Activity
MDA-MB-231 [23] = test: Induction of apoptosis in human MDA-MB-231 cells assessed as increase in cleaved-PARP protein expression incubated for 24 hrs by Western blot analysis; type: functional, cell-based; conditions: dose 2.5-10 µM
[24] = Metabolic stability in mouse liver microsomes assessed as parent compound remaining at 1 uM measured after 30 mins by LC-MS/MS analysis; type: ADME, Microsome; conditions: read-out: Stability
MDA-MB-231 [25] = test: Inhibition of cell migration in human MDA-MB-231 cells at 5 uM incubated for 12 hrs by cell scratch assay relative to control; type: functional
MDA-MB-231 [26] = test: Induction of apoptosis in human MDA-MB-231 cells assessed as increase in Bax protein expression incubated for 24 hrs by Western blot analysis; type: functional, cell-based; conditions: dose 2.5-10 µM
MDA-MB-231 [27] = test: Induction of ROS production in human MDA-MB-231 cells incubated for 12 hrs by flow cytometry based confocal microscopic analysis; type: functional, cell-based; conditions: dose 2.5-10 µM
MDA-MB-231 [28] = test: Induction of apoptosis in human MDA-MB-231 cells assessed as late apoptotic cells at 2.5 uM incubated for 24 hrs by Annexin V-FITC/PI staining based flow cytometric analysis (reference value: 0.161 %); type: functional
MDA-MB-231 [29] = test: Induction of apoptosis in human MDA-MB-231 cells assessed as viable cells at 5 uM incubated for 24 hrs by Annexin V-FITC/PI staining based flow cytometric analysis (reference value: 99.645%); type: functional; conditions: read-out: Activity
[30] = Toxicity in BALB/c athymic nude mouse xenografted with human MDA-MB-231 cells assessed as effect on kidney at 10 to 30 mg/kg, po administered once a day via gavage for 21 days by H and E staining based analysis; type: organism-based; conditions: in vivo, 504 h, dose 10-30 mg/kg, time 21 day
[31] = Metabolic stability in rat liver microsomes assessed as parent compound remaining at 1 uM measured after 30 mins by LC-MS/MS analysis; type: ADME, Microsome; conditions: read-out: Stability
MDA-MB-231 [32] = test: Cell cycle arrest in human MDA-MB-231 cells assessed as accumulation of G0-G1 phase cells at 5 uM incubated for 24 hrs by […]PI staining based flow cytometric analysis (reference value: 41.83%); type: functional
[33] = Metabolic stability in human liver microsomes assessed as half-life at 1 uM incubated for 45 mins by LC-MS/MS analysis; type: ADME, Microsome
[34] = Toxicity in BALB/c athymic nude mouse xenografted with human MDA-MB-231 cells assessed as effect on liver at 10 to 30 mg/kg, po administered once a day via gavage for 21 days by H and E staining based analysis; type: organism-based; conditions: in vivo, 504 h, dose 10-30 mg/kg, time 21 day

SMILES: C=CC(=O)Nc1ccc(Cn2cnc3c(-c4cc(OC)cc(OC)c4)ncnc32)cc1
- Activity (MDA-MB-231 [1]): 45.4%
- inhibition in vivo at 20 mg/kg (MDA-MB-231 [2]): 64.2%
- Activity (MDA-MB-231 [3]): 26.3%
- remaining at 0.75 h, 1 µM [4]: 9.41%
- Activity (MDA-MB-231 [5]): 14.25%
- remaining at 0.25 h, 1 µM [6]: 63.5%
- remaining at 5 min, 1 µM [7]: 85%
- IC50 [8]: 0.00064 µM
- remaining at 0.5 h, 1 µM [9]: 43.7%
- Activity (MDA-MB-231 [10]): 2.66%
- remaining at 0.25 h, 1 µM [11]: 27.2%
- remaining at 0.25 h, 1 µM [12]: 40%
- Activity (MDA-MB-231 [13]): 3.01%
- IC50 at 72 h (in vitro): 82.1 µM
- Activity (MDA-MB-231 [14]): inactive
- remaining at 5 min, 1 µM [15]: 61.5%
- Activity (Cell membrane): Dose-Dependent Effect
- Activity (MDA-MB-231 [16]): 1.66%
- Activity (MDA-MB-231 [17]): 10.68%
- Activity [18]: Non-Toxic
- viability at 2.5 µM (MDA-MB-231 [19]): 64.9%
- half-life at 1 µM [20]: 12.9 min
- remaining at 0.75 h, 1 µM [21]: 3.58%
- viability at 10 µM (MDA-MB-231 [22]): 37.2%
- Activity (MDA-MB-231 [23]): Dose-Dependent Effect
- remaining at 0.5 h, 1 µM [24]: 8.63%
- inhibition at 5 µM (MDA-MB-231 [25]): 82%
- Activity (MDA-MB-231 [26]): Dose-Dependent Effect
- Activity (MDA-MB-231 [27]): Dose-Dependent Effect
- Activity (MDA-MB-231 [28]): 6.16%
- viability at 5 µM (MDA-MB-231 [29]): 47.8%
- Activity [30]: Non-Toxic
- remaining at 0.5 h, 1 µM [31]: 18.6%
- Activity (MDA-MB-231 [32]): 66.5%
- half-life at 1 µM [33]: 41.4 min
- Activity [34]: Non-Toxic
